Source: PubChem BioAssay (NCI)
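Interpolation was linear, between the two tested concentrations surrounding the appropriate level; five concentrations were tested over 48 hours in 96-well plates. TGI is the concentration that stops growth completely.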

Each molecule was assayed on NCI-H522 lung (assay: NCI anticancer screen, dose series, 48 h).

SMILES | TGI [µM]
CCOC(=O)C1=C(C)N(Cc2ccccc2)C2(O)C=CC(=O)C3=C(O)c4ccccc4C(=O)C312 (stereo not drawn) | 27.2
COc1cc(-c2cc(=O)c3c(O)c(OC)c(OC)c(OC)c3o2)cc(OC)c1OC | 98.6
COc1cc(/C=N/NC2=NCCN2)ccc1O | > 100
O=C(NCCCCCN1CCC2(CCCCC2)CC1)C(C1CCCCC1)C1CCCCC1 | 9.01
CC[C@@]1(O)C(=O)OCc2c1cc1n(c2=O)Cc2c-1nc1ccccc1c2/C=N\NC(=O)C(N)Cc1c[nH]c2ccccc12 (stereo partly drawn) | 32.3
CCCCCCCCCCCCCCCCOCC(O)CO (stereo not drawn) | 33.2

The molecules below were run on NCI-H23 lung (assay: NCI anticancer screen, dose series, 48 h).

SMILES | TGI [µM]
CCOC(=O)C1=C(C)N(Cc2ccccc2)C2(O)C=CC(=O)C3=C(O)c4ccccc4C(=O)C312 (stereo not drawn) | 26.7
COc1cc(-c2cc(=O)c3c(O)c(OC)c(OC)c(OC)c3o2)cc(OC)c1OC | > 62.5
COc1cc(/C=N/NC2=NCCN2)ccc1O | > 100
O=C(NCCCCCN1CCC2(CCCCC2)CC1)C(C1CCCCC1)C1CCCCC1 | 9.89
C/C(=N\NC(N)=S)c1ccc(C2CCCCC2)cc1 | 56.3
CC[C@@]1(O)C(=O)OCc2c1cc1n(c2=O)Cc2c-1nc1ccccc1c2/C=N\NC(=O)C(N)Cc1c[nH]c2ccccc12 (stereo partly drawn) | 5.42
CCCCCCCCCCCCCCCCOCC(O)CO (stereo not drawn) | 37.2

These molecules were tested on CAKI-1 renal (assay: NCI anticancer screen, dose series, 48 h).

SMILES | TGI [µM]
CCOC(=O)C1=C(C)N(Cc2ccccc2)C2(O)C=CC(=O)C3=C(O)c4ccccc4C(=O)C312 (stereo not drawn) | 37.2
O=C(NCCCCCN1CCC2(CCCCC2)CC1)C(C1CCCCC1)C1CCCCC1 | 11.6
C/C(=N\NC(N)=S)c1ccc(C2CCCCC2)cc1 | 64.6
CC[C@@]1(O)C(=O)OCc2c1cc1n(c2=O)Cc2c-1nc1ccccc1c2/C=N\NC(=O)C(N)Cc1c[nH]c2ccccc12 (stereo partly drawn) | 2.52
CCCCCCCCCCCCCCCCOCC(O)CO (stereo not drawn) | 35

The molecules below were run on PC-3 prostate (assay: NCI anticancer screen, dose series, 48 h).

SMILES | TGI [µM]
CCOC(=O)C1=C(C)N(Cc2ccccc2)C2(O)C=CC(=O)C3=C(O)c4ccccc4C(=O)C312 (stereo not drawn) | > 100
COc1cc(-c2cc(=O)c3c(O)c(OC)c(OC)c(OC)c3o2)cc(OC)c1OC | > 100
COc1cc(/C=N/NC2=NCCN2)ccc1O | > 100
O=C(NCCCCCN1CCC2(CCCCC2)CC1)C(C1CCCCC1)C1CCCCC1 | 8.17
CC[C@@]1(O)C(=O)OCc2c1cc1n(c2=O)Cc2c-1nc1ccccc1c2/C=N\NC(=O)C(N)Cc1c[nH]c2ccccc12 (stereo partly drawn) | > 100
CCCCCCCCCCCCCCCCOCC(O)CO (stereo not drawn) | 37.8

What follows are molecules tested on SN12C renal (assay: NCI anticancer screen, dose series, 48 h).

SMILES | TGI [µM]
CCOC(=O)C1=C(C)N(Cc2ccccc2)C2(O)C=CC(=O)C3=C(O)c4ccccc4C(=O)C312 (stereo not drawn) | 32.1
COc1cc(-c2cc(=O)c3c(O)c(OC)c(OC)c(OC)c3o2)cc(OC)c1OC | > 100
COc1cc(/C=N/NC2=NCCN2)ccc1O | > 100
O=C(NCCCCCN1CCC2(CCCCC2)CC1)C(C1CCCCC1)C1CCCCC1 | 9.67
CC[C@@]1(O)C(=O)OCc2c1cc1n(c2=O)Cc2c-1nc1ccccc1c2/C=N\NC(=O)C(N)Cc1c[nH]c2ccccc12 (stereo partly drawn) | > 95.3
CCCCCCCCCCCCCCCCOCC(O)CO (stereo not drawn) | 36.3

These molecules were tested on TK-10 renal (assay: NCI anticancer screen, dose series, 48 h).

SMILES | TGI [µM]
CCOC(=O)C1=C(C)N(Cc2ccccc2)C2(O)C=CC(=O)C3=C(O)c4ccccc4C(=O)C312 (stereo not drawn) | 32.5
COc1cc(-c2cc(=O)c3c(O)c(OC)c(OC)c(OC)c3o2)cc(OC)c1OC | > 57.6
COc1cc(/C=N/NC2=NCCN2)ccc1O | > 100
O=C(NCCCCCN1CCC2(CCCCC2)CC1)C(C1CCCCC1)C1CCCCC1 | 10.4
C/C(=N\NC(N)=S)c1ccc(C2CCCCC2)cc1 | 80.3
CC[C@@]1(O)C(=O)OCc2c1cc1n(c2=O)Cc2c-1nc1ccccc1c2/C=N\NC(=O)C(N)Cc1c[nH]c2ccccc12 (stereo partly drawn) | > 100
CCCCCCCCCCCCCCCCOCC(O)CO (stereo not drawn) | 28.9

These molecules were tested on SNB-19 CNS (assay: NCI anticancer screen, dose series, 48 h).

SMILES | TGI [µM]
CCOC(=O)C1=C(C)N(Cc2ccccc2)C2(O)C=CC(=O)C3=C(O)c4ccccc4C(=O)C312 (stereo not drawn) | 88.7
COc1cc(-c2cc(=O)c3c(O)c(OC)c(OC)c(OC)c3o2)cc(OC)c1OC | > 78.7
COc1cc(/C=N/NC2=NCCN2)ccc1O | > 100
O=C(NCCCCCN1CCC2(CCCCC2)CC1)C(C1CCCCC1)C1CCCCC1 | 12.5
C/C(=N\NC(N)=S)c1ccc(C2CCCCC2)cc1 | > 100
CC[C@@]1(O)C(=O)OCc2c1cc1n(c2=O)Cc2c-1nc1ccccc1c2/C=N\NC(=O)C(N)Cc1c[nH]c2ccccc12 (stereo partly drawn) | 1.74
CCCCCCCCCCCCCCCCOCC(O)CO (stereo not drawn) | 52.4

These molecules were tested on HL-60(TB) leukemia (assay: NCI anticancer screen, dose series, 48 h).

SMILES | TGI [µM]
CCOC(=O)C1=C(C)N(Cc2ccccc2)C2(O)C=CC(=O)C3=C(O)c4ccccc4C(=O)C312 (stereo not drawn) | 42.1
COc1cc(-c2cc(=O)c3c(O)c(OC)c(OC)c(OC)c3o2)cc(OC)c1OC | > 100
COc1cc(/C=N/NC2=NCCN2)ccc1O | > 100
O=C(NCCCCCN1CCC2(CCCCC2)CC1)C(C1CCCCC1)C1CCCCC1 | 3.62
